Here are results for 20 compounds from patent publication US7064120B2, “Tricyclic pyridyl carboxamides and derivatives thereof tocolytic oxytocin receptor antagonists” (Wyeth, priority 2001, dated 2006).

SMILES strings stand for the structures.

T1 sequence (P37288 whole entry): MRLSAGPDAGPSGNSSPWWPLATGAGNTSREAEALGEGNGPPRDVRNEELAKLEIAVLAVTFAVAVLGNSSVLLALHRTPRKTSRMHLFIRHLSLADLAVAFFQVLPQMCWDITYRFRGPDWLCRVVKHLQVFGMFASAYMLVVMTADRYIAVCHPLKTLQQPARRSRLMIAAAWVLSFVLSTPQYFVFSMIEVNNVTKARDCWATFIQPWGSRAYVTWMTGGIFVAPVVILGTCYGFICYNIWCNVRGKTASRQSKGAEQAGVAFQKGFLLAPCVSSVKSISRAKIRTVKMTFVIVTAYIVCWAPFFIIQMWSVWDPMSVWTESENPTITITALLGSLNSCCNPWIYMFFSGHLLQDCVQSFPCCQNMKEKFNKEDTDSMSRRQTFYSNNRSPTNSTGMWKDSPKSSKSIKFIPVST

The assay concerns the target T1, human vasopressin V1a receptor subtype (Homo sapiens, UniProt P37288).
T1 construct: host or cells: CHO cells, stably transfected (pZeoSV vector for the Thibonnier line)
As to the kind of experiment: Vasopressin binding in CHO cell membranes expressing human vasopressin V1a subtype receptors ([3H]Manning ligand radioligand binding). The settings on record: 100 nM. The procedure:
Vasopressin Binding in Chinese Hamster Ovary Cell Membranes Expressing Human Vasopressin V1a Subtype Receptors
The trypsin is removed by aspiration and the cells dislodged by tapping. Cell Culture medium (e.g. 30 mL for 1:30 split) is immediately added and mixed well to inactivate trypsin. 1 mL of detached cells is added to new culture flasks containing fresh cell culture medium (e.g., into 25 mL per T-150 flask), and mixed gently. The cells are incubated at 37° C. in 5% CO2. The medium is changed at 3 to 4 days interval (or as appropriate). […] All steps are done under sterile conditions.
The cells are washed twice gently with Hank's Balanced Salt solution (e.g,. use 10 mL per T-150 flask). […] The contents are transferred to centrifuge tubes (50 mL) kept in an ice bath. All subsequent steps are done at 4° C. The tubes are centrifuged at 300×g for 15 min (1380 rpm on SORVAL, Model RT6000D, using the rotor for 50 mL tubes). The supernatant is discarded and the cells suspended in homogenizing buffer(10 mM Tris-HCl containing 0.25 M sucrose and 1 mM EDTA, pH 7.4) ensuring that the volume of the buffer is about ten times the volume of the cell pellet. The cells are pooled into a centrifuge tube (50 mL) and homogenized with Polytron at setting 6 for 10 sec. The homogenate is transferred into a Potter-Elvjehm homogenizer and homogenized with 3 strokes. The homogenate is centrifuged at 1500×g for 10 min at 4° C. (3100 rpm using SORVAL, model RT6000D, using the rotor for 50 mL tubes). The pellet is discarded. The supernatant is centrifuged at 100,000×g for 60 min. at 4° C. (Beckman L8-80M ultracentrifuge; spin at 37,500 rpm with rotor type 70 Ti for 50 mL tubes; 38,000 rpm with type 80Ti for 15 mL tubes; or 35,800 rpm with rotor type 45Ti). The supernantant is discarded and the pellet suspended in 3 to 4 mL of Tris buffer (50 mM TRIS-HCl, pH 7.4). The protein content is estimated by the Bradford or Lowry method. The volume of the membrane suspension is adjusted with the membrane buffer (50 mM Tris-HCl containing 0.1% BSA and 0.1 mM PMSF) to give 3.0 mg/mL (or as appropriate) of protein. The membranes are aliquoted and stored at −70° C.
In wells of a 96-well format microtiter plate, is added 90, 110 or 130 μL (to make up a final volume of 200 μL) of assay buffer containing 50 mM of Tris-HCl (pH 7.4), BSA (heat inactivated, protease-free), […], 1 mg % aprotinin, 1 mg % leupeptin, 2 mg % 1,10-phenanthroline, 10 mg % trypsin inhibitor, and 0.1 mM PMSF. The inhibitors are added on the day of the experiment. The components are mixed at room temperature, and then kept in ice bath following adjustment of the pH to 7.4. […] 20 μL of 50% DMSO is added for Manning and other peptide ligands and the assay buffer volume is adjusted accordingly. To each well is added 50 μL of frozen membrane suspension thawed immediately prior to use and diluted in the assay buffer to the required concentration (equivalent to 25 to 50 μg of protein/well as needed). 20 μL of 8 nM [^3H]Manning ligand in the assay buffer, prepared just before use, is added, and incubated at room temperature for 60 min. shaking the plate on a mechanical shaker for the first 15 min. The incubation is stopped by rapid filtration of the plate contents followed by wash with ice-cold buffer (50 mM Tris-HCl, pH 7.4) using a cell harvester (Tomtek and Printed filtermat-B filter paper). The filter paper is thoroughly dried (7–12 min. in a microwave oven) and impregnated with MeltiLex B/H melt-on scintillation wax sheets and the radioactivity counted in a betaplate scintillation counter.
Binding data is either reported as percent inhibition at a certain concentration or if an IC50 was calculated, as a nanomolar concentration.
For `COc1cccc(-c2ccc(C(=O)N3Cc4ccc(C(=O)NCc5ccncc5)n4Cc4ccccc43)cc2OC)c1` [Example 98], the “V1a % inhibition @ 100 nM” value worked out at 24%.

Usually inhibition stands for the share of the control response that was lost under treatment. Read a low inhibition as a response near the control. As for `COc1cc(C(=O)N2Cc3ccc(C(=O)N(C)Cc4cccnc4)n3Cc3ccccc32)ccc1-c1ccccc1C` [Example 106, 10-[(2-Methoxy-2′-methyl-[1,1′-biphenyl]-4-yl)carbonyl]-N-methyl-N-(3-pyridinylmethyl)-10,11-dihydro-5H-pyrrolo[2,1-c][1,4]benzodiazepine-3-carboxamide], 0.1 µM produced 68% inhibition. `COc1cc(-c2ccccc2C)c(Cl)cc1C(=O)N1Cc2ccc(C(=O)N(C)Cc3cccnc3)n2Cc2ccccc21` [Example 107, 10-[(6-Chloro-3-methoxy-2′-methyl-[1,1′-biphenyl]-4-yl)carbonyl]-N-methyl-N-(3-pyridinylmethyl)-10,11-dihydro-5H-pyrrolo[2,1-c][1,4]benzodiazepine-3-carboxamide] returned an inhibition at 0.1 µM of 12%.

As to `COc1cccc(-c2cc(OC)c(C(=O)N3Cc4ccc(C(=O)N(C)Cc5cccnc5)n4Cc4ccccc43)cc2Cl)c1` [Example 108, 10-[(6-Chloro-3,3′-dimethoxy-[1,1′-biphenyl]-4-yl)carbonyl]-N-methyl-N-(3-pyridinylmethyl)-10,11-dihydro-5H-pyrrolo[2,1-c][1,4]benzodiazepine-3-carboxamide], the inhibition at 0.1 µM is 4%.

Turning to `COc1cc(C(=O)N2Cc3ccc(C(=O)N(C)Cc4cccnc4)n3Cc3ccccc32)ccc1-c1cccc2ccccc12` [Example 109, 10-[3-Methoxy-4-(naphthalen-1-yl)benzoyl]-N-methyl-N-(3-pyridinylmethyl)-10,11-dihydro-5H-pyrrolo[2,1-c][1,4]benzodiazepine-3-carboxamide], the inhibition at 0.1 µM came out at 7%.

As for `COc1cccc(-c2ccc(C(=O)N3Cc4ccc(C(=O)N(C)Cc5cccnc5)n4Cc4ccccc43)cc2OC)c1` [Example 110], the “V1a % inhibition @ 100 nM” value is listed as 49%. For `CN(Cc1cccnc1)C(=O)c1ccc2n1Cc1ccccc1N(C(=O)c1ccc(-c3cccc4ccccc34)cc1Cl)C2` [Example 111, 10-[2-Chloro-4-(naphthalen-1-yl)benzoyl]-N-methyl-N-(3-pyridinylmethyl)-10,11-dihydro-5H-pyrrolo[2,1-c][1,4]benzodiazepine-3-carboxamide], the inhibition at 0.1 µM was 4%.

Compound `Cc1ccccc1-c1ccc(C(=O)N2Cc3ccc(C(=O)N4CCN(c5ccncc5)CC4)n3Cc3ccccc32)cc1C` [Example 114, {10-[(2,2′-Dimethyl-[1,1′-biphenyl]-4-yl)carbonyl]-10,11-dihydro-5H-pyrrolo[2,1-c][1,4]benzodiazepin-3-yl}[4-(4-pyridinyl)-1-piperazinyl]methanone] returned an inhibition at 0.1 µM of 56%. As to `COc1cccc(-c2ccc(C(=O)N3Cc4ccc(C(=O)N5CCN(c6ccncc6)CC5)n4Cc4ccccc43)cc2C)c1` [Example 115, {10-[(3′-Methoxy-2-methyl-[1,1′-biphenyl]-4-yl)carbonyl]-10,11-dihydro-5H-pyrrolo[2,1-c][1,4]benzodiazepin-3-yl}[4-(4-pyridinyl)-1-piperazinyl]methanone], the inhibition at 0.1 µM was determined as 22%. `COc1ccccc1-c1ccc(C(=O)N2Cc3ccc(C(=O)N4CCN(c5ccncc5)CC4)n3Cc3ccccc32)cc1` [Example 116, {10-[(2′-Methoxy-[1,1′-biphenyl]-4-yl)carbonyl]-10,11-dihydro-5H-pyrrolo[2,1-c][1,4]benzodiazepin-3-yl}[4-(4-pyridinyl)-1-piperazinyl]methanone] registered an inhibition at 0.1 µM of 77%. Still for that read-out and setting: in the case of `Cc1ccccc1-c1ccc(C(=O)N2Cc3ccc(C(=O)N4CCN(c5ccncc5)CC4)n3Cc3ccccc32)cc1` [Example 117, {10-[(2′-Methyl-[1,1′-biphenyl]-4-yl)carbonyl]-10,11-dihydro-5H-pyrrolo[2,1-c][1,4]benzodiazepin-3-yl}[4-(4-pyridinyl)-1-piperazinyl]methanone] it was 1%. For `COc1cc(C(=O)N2Cc3ccc(C(=O)N4CCN(c5ccncc5)CC4)n3Cc3ccccc32)ccc1-c1ccccc1C` [Example 118], the “V1a % inhibition @ 100 nM” value stood at 62%. Regarding `COc1cc(-c2ccccc2C)c(Cl)cc1C(=O)N1Cc2ccc(C(=O)N3CCN(c4ccncc4)CC3)n2Cc2ccccc21` [Example 119, {10-[(6-Chloro-3-methoxy-2′-methyl-[1,1′-biphenyl]-4-yl)carbonyl]-10,11-dihydro-5H-pyrrolo[2,1-c][1,4]benzodiazepin-3-yl}[4-(4-pyridinyl)-1-piperazinyl]methanone], testing at 0.1 µM gave an inhibition of 9%. Still for that read-out and setting: in the case of `COc1cccc(-c2cc(OC)c(C(=O)N3Cc4ccc(C(=O)N5CCN(c6ccncc6)CC5)n4Cc4ccccc43)cc2Cl)c1` [Example 120, {10-[(6-Chloro-3,3′-dimethoxy-[1,1′-biphenyl]-4-yl)carbonyl]-10,11-dihydro-5H-pyrrolo[2,1-c][1,4]benzodiazepin-3-yl}[4-(4-pyridinyl)-1-piperazinyl]methanone] it was 6%; in that of `COc1cc(C(=O)N2Cc3ccc(C(=O)N4CCN(c5ccncc5)CC4)n3Cc3ccccc32)ccc1-c1cccc2ccccc12` [Example 121, {10-[3-Methoxy-4-(naphthalen-1-yl)benzoyl]-10,11-dihydro-5H-pyrrolo[2,1-c][1,4]benzodiazepin-3-yl}[4-(4-pyridinyl)-1-piperazinyl]methanone], 17%; in that of `COc1ccccc1-c1ccc(C(=O)N2Cc3ccc(C(=O)N4CCN(c5ccncc5)CC4)n3Cc3ccccc32)cc1OC` [Example 122, {10-[(2,2′-Dimethoxy-[1,1′-biphenyl]-4-yl)carbonyl]-10,11-dihydro-5H-pyrrolo[2,1-c][1,4]benzodiazepin-3-yl}[4-(4-pyridinyl)-1-piperazinyl]methanone], 9%. Turning to `COc1cccc(-c2ccc(C(=O)N3Cc4ccc(C(=O)N5CCN(c6ccncc6)CC5)n4Cc4ccccc43)cc2OC)c1` [Example 123, {10-[(2,3′-Dimethoxy-[1,1′-biphenyl]-4-yl)carbonyl]-10,11-dihydro-5H-pyrrolo[2,1-c][1,4]benzodiazepin-3-yl}[4-(4-pyridinyl)-1-piperazinyl]methanone], the inhibition at 0.1 µM is 71%.

In the case of `O=C(c1ccc2n1Cc1ccccc1N(C(=O)c1ccc(-c3cccc4ccccc34)cc1Cl)C2)N1CCN(c2ccncc2)CC1` [Example 124, {10-[2-Chloro-4-(naphthalen-1-yl)benzoyl]-10,11-dihydro-5H-pyrrolo[2,1-c][1,4]benzodiazepin-3-yl}[4-(4-pyridinyl)-1-piperazinyl]methanone], testing at 0.1 µM gave an inhibition of 11%. `COc1ccccc1-c1ccc(C(=O)N2Cc3ccc(C(=O)N(C)CCc4ccncc4)n3Cc3ccccc32)cc1OC` [Example 125, 10-[(2,2′-Dimethoxy-[1,1′-biphenyl]-4-yl)carbonyl]-N-methyl-N-[2-(4-pyridinyl)ethyl]-10,11-dihydro-5H-pyrrolo[2,1-c][1,4]benzodiazepine-3-carboxamide] gave an inhibition at 0.1 µM of 17%. Same read-out and setting: next, `COc1ccccc1-c1ccc(C(=O)N2Cc3ccc(C(=O)N(C)CCc4ccncc4)n3Cc3ccccc32)cc1C` [Example 126, 10-[(2′-Methoxy-2-methyl-[1,1′-biphenyl]-4-yl)carbonyl]-N-methyl-N-[2-(4-pyridinyl)ethyl]-10,11-dihydro-5H-pyrrolo[2,1-c][1,4]benzodiazepine-3-carboxamide]: 38%.
